Laboratory results taken from PMC8037182, “Solvothermal Synthesis of Multiple Dihydropyrimidinones at a Time as Inhibitors of Eg5” (Molecules, 2021).

Tests used:
[1] = tested on: Hela cell line; assay: Cytotoxicity MTS assay, Hela cell line; type: cell-based; settings: for OD490 value, Mean / OD490 value, Well 1 / OD490 value, Well 2 / OD490 value, Well 3: Hela cell line, MTS;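 as to OD490 value, Mean: blank control wells received 0.025% DMSO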;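 as to OD490 value, Well 1: blank control wells received 0.025% DMSO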;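 as to OD490 value, Well 2: blank control wells received 0.025% DMSO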;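 as to OD490 value, Well 3: blank control wells received 0.025% DMSO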
How it was run: (§1)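 Cells seeded at 1000 per well, grown 24 h, then exposed to compound (0.5–100 µM final) for 24 h with 0.025% DMSO blank. MTS reagent added for 2 h at 37 °C, absorbance read at 490 nm; IC50 from non-linear regression of % viability versus concentration, three independent duplicate experiments.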

[2] = tested on: L929 cell line; assay: Cytotoxicity MTS assay, L929 cell line; type: cell-based; settings: for OD490 values, Mean / OD490 values, Well 1 / OD490 values, Well 2 / OD490 values, Well 3: L929 cell line
How it was run: as §1

CCOc1ccccc1C1NC(=S)NC(C)=C1C(=O)Nc1ccc(Cl)cc1 (centres unmarked) [C9]
OD490 value, Mean ([1]; 0.5μM, first assay): 2.5086 | OD490 value, Well 1 ([1]; 0.5μM, first assay): 2.5337 | OD490 value, Well 2 ([1]; 0.5μM, first assay): 2.5147 | OD490 value, Well 3 ([1]; 0.5μM, first assay): 2.4773 | OD490 value, Mean ([1]; 0.5μM, second assay): 2.5027 | OD490 value, Well 1 ([1]; 0.5μM, second assay): 2.5377 | OD490 value, Well 2 ([1]; 0.5μM, second assay): 2.5102 | OD490 value, Well 3 ([1]; 0.5μM, second assay): 2.4603 | OD490 value, Mean ([1]; 0.5μM, third assay): 2.5209 | OD490 value, Well 1 ([1]; 0.5μM, third assay): 2.7845 | OD490 value, Well 2 ([1]; 0.5μM, third assay): 2.5536 | OD490 value, Well 3 ([1]; 0.5μM, third assay): 2.2245 | OD490 value, Mean ([1]; 1μM, first assay): 2.3583 | OD490 value, Well 1 ([1]; 1μM, first assay): 2.1436 | OD490 value, Well 2 ([1]; 1μM, first assay): 2.5164 | OD490 value, Well 3 ([1]; 1μM, first assay): 2.4149 | OD490 value, Mean ([1]; 1μM, second assay): 2.3955 | OD490 value, Well 1 ([1]; 1μM, second assay): 2.2145 | OD490 value, Well 2 ([1]; 1μM, second assay): 2.4935 | OD490 value, Well 3 ([1]; 1μM, second assay): 2.4784 | OD490 value, Mean ([1]; 1μM, third assay): 2.4734 | OD490 value, Well 1 ([1]; 1μM, third assay): 2.4685 | OD490 value, Well 2 ([1]; 1μM, third assay): 2.5532 | OD490 value, Well 3 ([1]; 1μM, third assay): 2.3985 | OD490 value, Mean ([1]; 10μM, first assay): 2.3086 | OD490 value, Well 1 ([1]; 10μM, first assay): 2.1660 | OD490 value, Well 2 ([1]; 10μM, first assay): 2.3778 | OD490 value, Well 3 ([1]; 10μM, first assay): 2.3820 | OD490 value, Mean ([1]; 10μM, second assay): 2.1859 | OD490 value, Well 1 ([1]; 10μM, second assay): 2.2135 | OD490 value, Well 2 ([1]; 10μM, second assay): 2.1456 | OD490 value, Well 3 ([1]; 10μM, second assay): 2.1987 | OD490 value, Mean ([1]; 10μM, third assay): 2.4047 | OD490 value, Well 1 ([1]; 10μM, third assay): 2.2123 | OD490 value, Well 2 ([1]; 10μM, third assay): 2.5652 | OD490 value, Well 3 ([1]; 10μM, third assay): 2.4365 | OD490 value, Mean ([1]; 25μM, first assay): 1.8211 | OD490 value, Well 1 ([1]; 25μM, first assay): 1.4666 | OD490 value, Well 2 ([1]; 25μM, first assay): 1.9622 | OD490 value, Well 3 ([1]; 25μM, first assay): 2.0346 | OD490 value, Mean ([1]; 25μM, second assay): 1.8416 | OD490 value, Well 1 ([1]; 25μM, second assay): 1.7589 | OD490 value, Well 2 ([1]; 25μM, second assay): 1.8637 | OD490 value, Well 3 ([1]; 25μM, second assay): 1.9021 | OD490 value, Mean ([1]; 25μM, third assay): 1.8662 | OD490 value, Well 1 ([1]; 25μM, third assay): 1.7769 | OD490 value, Well 2 ([1]; 25μM, third assay): 1.8252 | OD490 value, Well 3 ([1]; 25μM, third assay): 1.9965 | OD490 value, Mean ([1]; 50μM, first assay): 1.6538 | OD490 value, Well 1 ([1]; 50μM, first assay): 1.2953 | OD490 value, Well 2 ([1]; 50μM, first assay): 1.8006 | OD490 value, Well 3 ([1]; 50μM, first assay): 1.8654 | OD490 value, Mean ([1]; 50μM, second assay): 1.6346 | OD490 value, Well 1 ([1]; 50μM, second assay): 1.5694 | OD490 value, Well 2 ([1]; 50μM, second assay): 1.6357 | OD490 value, Well 3 ([1]; 50μM, second assay): 1.6987 | OD490 value, Mean ([1]; 50μM, third assay): 1.6911 | OD490 value, Well 1 ([1]; 50μM, third assay): 1.6532 | OD490 value, Well 2 ([1]; 50μM, third assay): 1.7755 | OD490 value, Well 3 ([1]; 50μM, third assay): 1.6445 | OD490 value, Mean ([1]; 100μM, first assay): 1.1310 | OD490 value, Well 1 ([1]; 100μM, first assay): 0.9154 | OD490 value, Well 2 ([1]; 100μM, first assay): 1.2917 | OD490 value, Well 3 ([1]; 100μM, first assay): 1.1859 | OD490 value, Mean ([1]; 100μM, second assay): 1.0983 | OD490 value, Well 1 ([1]; 100μM, second assay): 1.1234 | OD490 value, Well 2 ([1]; 100μM, second assay): 1.1125 | OD490 value, Well 3 ([1]; 100μM, second assay): 1.0589 | OD490 value, Mean ([1]; 100μM, third assay): 1.1051 | OD490 value, Well 1 ([1]; 100μM, third assay): 1.0232 | OD490 value, Well 2 ([1]; 100μM, third assay): 1.1136 | OD490 value, Well 3 ([1]; 100μM, third assay): 1.1784 | IC50 ([1]; Homo sapiens, HeLa, 24 h, MTS assay, 24 h exposure): 75.6 µM | OD490 values, Mean ([2]; 0.5μM, first assay): 1.3120 | OD490 values, Well 1 ([2]; 0.5μM, first assay): 1.2051 | OD490 values, Well 2 ([2]; 0.5μM, first assay): 1.4334 | OD490 values, Well 3 ([2]; 0.5μM, first assay): 1.2976 | OD490 values, Mean ([2]; 0.5μM, second assay): 1.7414 | OD490 values, Well 1 ([2]; 0.5μM, second assay): 1.7956 | OD490 values, Well 2 ([2]; 0.5μM, second assay): 1.7365 | OD490 values, Well 3 ([2]; 0.5μM, second assay): 1.6920 | OD490 values, Mean ([2]; 0.5μM, third assay): 1.5324 | OD490 values, Well 1 ([2]; 0.5μM, third assay): 1.5628 | OD490 values, Well 2 ([2]; 0.5μM, third assay): 1.4792 | OD490 values, Well 3 ([2]; 0.5μM, third assay): 1.5552 | OD490 values, Mean ([2]; 1μM, first assay): 1.2882 | OD490 values, Well 1 ([2]; 1μM, first assay): 1.1921 | OD490 values, Well 2 ([2]; 1μM, first assay): 1.2906 | OD490 values, Well 3 ([2]; 1μM, first assay): 1.3820 | OD490 values, Mean ([2]; 1μM, second assay): 1.7491 | OD490 values, Well 1 ([2]; 1μM, second assay): 1.7526 | OD490 values, Well 2 ([2]; 1μM, second assay): 1.7963 | OD490 values, Well 3 ([2]; 1μM, second assay): 1.6985 | OD490 values, Mean ([2]; 1μM, third assay): 1.5501 | OD490 values, Well 1 ([2]; 1μM, third assay): 1.5147 | OD490 values, Well 2 ([2]; 1μM, third assay): 1.6354 | OD490 values, Well 3 ([2]; 1μM, third assay): 1.5001 | OD490 values, Mean ([2]; 10μM, first assay): 1.2539 | OD490 values, Well 1 ([2]; 10μM, first assay): 1.1842 | OD490 values, Well 2 ([2]; 10μM, first assay): 1.1521 | OD490 values, Well 3 ([2]; 10μM, first assay): 1.4254 | OD490 values, Mean ([2]; 10μM, second assay): 1.6826 | OD490 values, Well 1 ([2]; 10μM, second assay): 1.6658 | OD490 values, Well 2 ([2]; 10μM, second assay): 1.5966 | OD490 values, Well 3 ([2]; 10μM, second assay): 1.7854 | OD490 values, Mean ([2]; 10μM, third assay): 1.5957 | OD490 values, Well 1 ([2]; 10μM, third assay): 1.5987 | OD490 values, Well 2 ([2]; 10μM, third assay): 1.6038 | OD490 values, Well 3 ([2]; 10μM, third assay): 1.5847 | OD490 values, Mean ([2]; 25μM, first assay): 1.1905 | OD490 values, Well 1 ([2]; 25μM, first assay): 1.1608 | OD490 values, Well 2 ([2]; 25μM, first assay): 1.2406 | OD490 values, Well 3 ([2]; 25μM, first assay): 1.1701 | OD490 values, Mean ([2]; 25μM, second assay): 1.4962 | OD490 values, Well 1 ([2]; 25μM, second assay): 1.4563 | OD490 values, Well 2 ([2]; 25μM, second assay): 1.5624 | OD490 values, Well 3 ([2]; 25μM, second assay): 1.4698 | OD490 values, Mean ([2]; 25μM, third assay): 1.3392 | OD490 values, Well 1 ([2]; 25μM, third assay): 1.3256 | OD490 values, Well 2 ([2]; 25μM, third assay): 1.3332 | OD490 values, Well 3 ([2]; 25μM, third assay): 1.3587 | OD490 values, Mean ([2]; 50μM, first assay): 1.0589 | OD490 values, Well 1 ([2]; 50μM, first assay): 1.0389 | OD490 values, Well 2 ([2]; 50μM, first assay): 1.0906 | OD490 values, Well 3 ([2]; 50μM, first assay): 1.0471 | OD490 values, Mean ([2]; 50μM, second assay): 1.2280 | OD490 values, Well 1 ([2]; 50μM, second assay): 1.2236 | OD490 values, Well 2 ([2]; 50μM, second assay): 1.2635 | OD490 values, Well 3 ([2]; 50μM, second assay): 1.1968 | OD490 values, Mean ([2]; 50μM, third assay): 1.1793 | OD490 values, Well 1 ([2]; 50μM, third assay): 1.1416 | OD490 values, Well 2 ([2]; 50μM, third assay): 1.2010 | OD490 values, Well 3 ([2]; 50μM, third assay): 1.1952 | OD490 values, Mean ([2]; 100μM, first assay): 0.6738 | OD490 values, Well 1 ([2]; 100μM, first assay): 0.6518 | OD490 values, Well 2 ([2]; 100μM, first assay): 0.6916 | OD490 values, Well 3 ([2]; 100μM, first assay): 0.6781 | OD490 values, Mean ([2]; 100μM, second assay): 0.7959 | OD490 values, Well 1 ([2]; 100μM, second assay): 0.7856 | OD490 values, Well 2 ([2]; 100μM, second assay): 0.7958 | OD490 values, Well 3 ([2]; 100μM, second assay): 0.8062 | OD490 values, Mean ([2]; 100μM, third assay): 0.7698 | OD490 values, Well 1 ([2]; 100μM, third assay): 0.8020 | OD490 values, Well 2 ([2]; 100μM, third assay): 0.7321 | OD490 values, Well 3 ([2]; 100μM, third assay): 0.7754 | IC50 ([2]; Mus musculus, L929, MTS assay, 24 h exposure, ordinary fibroblast, not cancer cells): 86 µM
